Where only a bound is given, the exact number is not on record here.

The first assay addresses c-Myc template DNA (c-myc quadruplex). The assay is described as follows: Quadruplex binding / stop assay (Taq polymerase arrest, capillary electrophoresis). The following applies: read-out: S DATA; Table 1D, stop assay data.
With `CC(C)N1CCN(c2c(F)cc3c(=O)c(C(=O)NCCN4CCOCC4)cn4c3c2Oc2cc(Cl)ccc2-4)CC1` [compound 1805], the IC50 is > 15 µM.

With `COC(=O)N[C@H]1CCN(c2c(F)cc3c(=O)c(C(=O)NCCC4CCCN4C)cn4c3c2Oc2cc3ccccc3cc2-4)C1` (some centres unmarked) [compound 1515], the IC50 is > 15 µM.

Consider `Cc1cc(CNc2c(F)cc3c(=O)c(C(=O)NCCC4CCCN4C)cn4c3c2Oc2cc3ccccc3cc2-4)no1` (centres unmarked) [compound 1753], for which the IC50 is > 15 µM.

For `CN1CCCC1CCNC(=O)c1cn2c3c(c(NCCC4CCCN4C)ccc3c1=O)Oc1cc3ccccc3cc1-2` (centres unmarked) [compound 1523], the IC50 is 0.75 µM.

As for `CC(C)N1CCN(c2c(F)cc3c(=O)c(C(=O)NCCN4CCOCC4)cn4c3c2Oc2ccc(Cl)cc2-4)CC1` [compound 1804], the IC50 is > 15 µM.

Consider `CN1CCN(CCCNc2ccc3c(=O)c(C(=O)NCCN4CCOCC4)cn4c3c2Oc2cc3ccccc3cc2-4)CC1` [compound 1556], for which the IC50 stood at 1.75 µM.

As to `CN1CCCC1CCNC(=O)c1cn2c3c(c(-n4cncc4-c4cnccn4)c(F)cc3c1=O)Oc1cc3ccccc3cc1-2` (centres unmarked) [compound 1761], the IC50 was found to be 1.75 µM.

On to `N=C(N)NCCNC(=O)c1cn2c3c(c(NCCN4CCCC4)c(F)cc3c1=O)Oc1cc3ccccc3cc1-2` [compound 1653], for which the IC50 turned out to be 0.34 µM.

On to `CN1CCCC1CCNC(=O)c1cn2c3c(c(N4CCC(c5cnccn5)C4)c(F)cc3c1=O)Oc1ccc(C(N)=O)cc1-2` (centres unmarked) [compound 1773], for which the IC50 was found to be 6.1 µM.

For the compound `O=C(NCCN1CCOCC1)c1cn2c3c(c(N4CCC(c5cnccn5)C4)c(F)cc3c1=O)Oc1ccc(Cl)cc1-2` (centres unmarked) [compound 1789], the IC50 was > 15 µM.

Consider `O=C(NCCN1CCCC1)c1cn2c3c(c(N4CCN(Cc5ccc[nH]5)CC4)c(F)cc3c1=O)Oc1cc(Cl)ccc1-2` [compound 1833], for which the IC50 is 10 µM.

`CN1CCCC1CCNC(=O)c1cn2c3c(c(NCCN4CCOCC4)ccc3c1=O)Oc1cc3ccccc3cc1-2` (centres unmarked) [compound 1547]: the IC50 was > 15 µM.

With `CN(C)CCCCNC(=O)c1cn2c3c(c(N4CCC(NC(=O)OC(C)(C)C)C4)ccc3c1=O)Oc1cc3ccccc3cc1-2` (centres unmarked) [compound 1538], the IC50 amounted to 1 µM.

With `C[N+]1([O-])CCC[C@@H]1CCNC(=O)c1cn2c3c(c(N4CCC(c5cnccn5)C4)c(F)cc3c1=O)Oc1cc3ccccc3cc1-2` (some centres unmarked) [compound 1766], the IC50 came out at 6.3 µM.

For `CN1CCCC1CCNC(=O)c1cn2c3c(c(N4CCC(C(N)=O)CC4)c(F)cc3c1=O)Oc1cc3ccccc3cc1-2` (centres unmarked) [compound 1493], the IC50 came to 1.75 µM.

Consider `NC1CCN(c2c(F)cc3c(=O)c(C(=O)NCC4CC4)cn4c3c2Oc2cc3ccccc3cc2-4)C1` (centres unmarked) [compound 1700], for which the IC50 was > 15 µM.

For `CN1CCC(NC(=O)c2cn3c4c(c(N5CCC(N)C5)c(F)cc4c2=O)Oc2cc4ccccc4cc2-3)CC1` (centres unmarked) [compound 1717], the IC50 worked out at 0.75 µM.

In the case of `CN1CCCC1CCNC(=O)c1cn2c3c(c(N4CCN(c5ncccn5)CC4)c(F)cc3c1=O)Oc1cc(Cl)ccc1-2` (centres unmarked) [compound 1810], the IC50 worked out at 7.8 µM.

Take `CCN(CC)CCCC(C)NC(=O)c1cn2c3c(c(N4CC5CCCNC5C4)ccc3c1=O)Oc1cc3ccccc3cc1-2` (centres unmarked) [compound 1733]: the IC50 is > 15 µM.

Take `O=C(NCCN1CCCC1)c1cn2c3c(c(NCCCN4CCOCC4)ccc3c1=O)Oc1cc3ccccc3cc1-2` [compound 1528]: the IC50 came out at 1.75 µM.

In the case of `CN1CCN(C(=O)c2cn3c4c(c(NCCN5CCCC5)c(F)cc4c2=O)Oc2ccccc2-3)CC1` [compound 1602], the IC50 was > 15 µM.

As for `CN1CCCC1CCNC(=O)c1cn2c3c(c(N(C)C4CCN(Cc5ccccc5)CC4)c(F)cc3c1=O)Oc1cc3ccccc3cc1-2` (centres unmarked) [compound 1487], the IC50 was 1.75 µM.

As to `CC(C)OCCCNC(=O)c1cn2c3c(c(N4CCC(N)C4)c(F)cc3c1=O)Oc1cc3ccccc3cc1-2` (centres unmarked) [compound 1710], the IC50 was > 15 µM.

`CN1CCCC1CCNC(=O)c1cn2c3c(c(N4CCC(N)CC4)c(F)cc3c1=O)Oc1cc3ccccc3cc1-2` (centres unmarked) [compound 1616]: the IC50 came to 1.75 µM.

Turning to `CN1CCCC1CCNC(=O)c1cn2c3c(c(N4C[C@@H](NC(=O)OC(C)(C)C)[C@H](c5ccccc5)C4)c(F)cc3c1=O)Oc1cc3ccccc3cc1-2` (some centres unmarked) [compound 1514], the IC50 is > 15 µM.

Staying with this assay, now noted: read-out: Stop Data c-Myc μM; concentration at which 50% of the DNA was arrested (arrested:full-length 1:1).
With `CN1CCCC1CCNc1c(F)cc2c(=O)c(C(N)=O)cn3c2c1Oc1cc2ccccc2cc1-3` (centres unmarked) [compound 298], the IC50 was found to be 1.75 µM.

With `CN(CCc1ccccn1)C(=O)c1ccc2c(c1)Oc1c(NCCCn3ccnc3)c(F)cc3c(=O)c(C(=O)N(C)CCc4ccccn4)cn-2c13` [compound 39], the IC50 came to 2.5 µM.

`CN1CCCC1CCNC(=O)c1cn2c3c(c(N4CCC(NC(=O)OC(C)(C)C)C4)ccc3c1=O)Oc1cc3ccccc3cc1-2` (centres unmarked) [compound 451]: the IC50 came out at 0.75 µM.

`CN(C)CCCCNC(=O)c1cn2c3c(c(NCCCN4CCN(C)CC4)c(F)cc3c1=O)Oc1cc3c(cc1-2)oc1ccccc13` [compound 153]: the IC50 is 1.75 µM.

Regarding `CN1CCN(CCCNC(=O)c2cn3c4c(c(N5CC[C@@H](N)C5)c(F)cc4c2=O)Oc2c-3ccc3ccccc23)CC1` [compound 304], the IC50 is 1.13 µM.

With `CN(C)c1ccc(NC(=O)c2cn3c4c(c(NCCC5CCCN5C)c(F)cc4c2=O)Oc2c-3ccc3ccccc23)cc1` (centres unmarked) [compound 136], the IC50 was determined as 1.75 µM.

Regarding `O=C(NCCCN1CCOCC1)c1cn2c3c(c(NCCN4CCCC4)ccc3c1=O)Oc1cc3ccccc3cc1-2` [compound 267], the IC50 was 1.75 µM.

As to `CN1CCN(CCCNC(=O)c2cn3c4c(c(NCCCN5CCN(C)CC5)c(F)cc4c2=O)Oc2cc4c(cc2-3)oc2ccccc24)CC1` [compound 151], the IC50 stood at 1.75 µM.

On to `CN1CCN(CCCNC(=O)c2cn3c4c(c(N5CCC(N)C5)c(F)c(N)c4c2=O)Oc2cc4ccccc4cc2-3)CC1` (centres unmarked) [compound 240], for which the IC50 amounted to 1.75 µM.

`CN1CCN(CCCNC(=O)c2cn3c4c(c(NCCCN5CCOCC5)c(F)cc4c2=O)Oc2cc4ccccc4cc2-3)CC1` [compound 49]: the IC50 was 2.5 µM.

In the case of `CN1CCCC1CCNC(=O)c1cn2c3c(c(NCCCCCO)c(F)cc3c1=O)Oc1cc3ccccc3cc1-2` (centres unmarked) [compound 1469], the IC50 was determined as 1.75 µM.

On to `CN1CCN(CCCNC(=O)c2cn3c4c(c(N5CCC(NC(=O)OC(C)(C)C)C5)c(F)c(N)c4c2=O)Oc2cc4ccccc4cc2-3)CC1` (centres unmarked) [compound 231], for which the IC50 came out at 1.75 µM.

With `O=C(NCCN1CCCC1)c1cn2c3cc4oc5cc([N+](=O)[O-])ccc5[nH]c4cc3oc3c(NCCCN4CCOCC4)c(F)cc(c1=O)c32` [compound 554], the IC50 was found to be 0.375 µM.

On to `CN(C)CCCCNC(=O)c1cn2c3c(c(NCCC4CCCN4C)c(F)cc3c1=O)Oc1cc3ccccc3cc1-2` (centres unmarked) [compound 125], for which the IC50 was 1.75 µM.

Regarding `CN1CCCC1CCNC(=O)c1cn2c3cc4c(=O)c5ccccc5c(=O)c4cc3oc3c(N4CCC(NC(=O)OC(C)(C)C)C4)c(F)cc(c1=O)c32` (centres unmarked) [compound 168], the IC50 was 1.75 µM.

Turning to `CN1CCN(CCCNc2c(F)cc3c(=O)c(C(=O)N4CC[C@@H](NC(=O)OC(C)(C)C)C4)cn4c3c2Oc2cc3ccccc3cc2-4)CC1` [compound 61], the IC50 came to 2.5 µM.

Regarding `CN(C)CCCCNc1ccc2c(=O)c(C(=O)NCCN3CCOCC3)cn3c2c1Oc1cc2ccccc2cc1-3` [compound 453], the IC50 is 0.75 µM.

As to `CN1CCCC1CCNC(=O)c1cn2c3c(c(NC4CCCNC4)c(F)cc3c1=O)Oc1cc3ccccc3cc1-2` (centres unmarked) [compound 433], the IC50 is 0.75 µM.

For the compound `CC(C)(C)OC(=O)NC1CCN(C(=O)c2cn3c4c(c(NCCCN5CCOCC5)c(F)c(N)c4c2=O)Oc2cc4ccccc4cc2-3)C1` (centres unmarked) [compound 219], the IC50 was 1.75 µM.

Take `CCOC(CCCNc1c(F)cc2c(=O)c(C(=O)NCCC3CCCN3C)cn3c2c1Oc1cc2ccccc2cc1-3)OCC` (centres unmarked) [compound 463]: the IC50 turned out to be 0.75 µM.

As for `CC1CCCC(C)N1CCCNc1c(F)cc2c(=O)c(C(=O)NCCC3CCCN3C)cn3c2c1Oc1cc2ccccc2cc1-3` (centres unmarked) [compound 296], the IC50 stood at 1.75 µM.

For `CN(C)CCCNC(=O)c1cn2c3c(c(N4CCC(N)C4)c(F)cc3c1=O)Oc1cc3ccccc3cc1-2` (centres unmarked) [compound 246], the IC50 worked out at 1.75 µM.

As for `CN(C)CCCCNc1c(F)cc2c(=O)c(C(=O)NCCCN3CCOCC3)cn3c4cc5oc6cc([N+](=O)[O-])ccc6[nH]c5cc4oc1c23` [compound 556], the IC50 turned out to be 0.375 µM.

As for `CN(C)CCCCNc1c(F)cc2c(=O)c(C(=O)NCCN3CCOCC3)cn3c2c1Oc1cc2c(cc1-3)oc1ccccc12` [compound 163], the IC50 stood at 1.75 µM.

Consider `CN1CCCC1CCNc1c(F)cc2c(=O)c(C(=O)NCCN3CCOCC3)cn3c2c1Oc1cc2c(cc1-3)oc1ccccc12` (centres unmarked) [compound 158], for which the IC50 amounted to 1.75 µM.

Regarding `CN1CCCC1CCNC(=O)c1cn2c3c(c(N4CCC(N5CCCC5)CC4)c(F)cc3c1=O)Oc1cc3ccccc3cc1-2` (centres unmarked) [compound 434], the IC50 was 0.75 µM.

Take `O=C(O)c1cn2c3cc4c(cc3oc3c(F)c(F)cc(c1=O)c32)c(=O)c1ccccc14` [compound 320]: the IC50 turned out to be 1 µM.

For the compound `CN(C)CCCCNC(=O)c1cn2c3cc4c(=O)c5ccccc5c(=O)c4cc3oc3c(NCCCN4CCOCC4)c(F)cc(c1=O)c32` [compound 167], the IC50 stood at 1.75 µM.

As for `CN(C)CCCCNc1c(F)cc2c(=O)c(C(=O)NCCCN3CCOCC3)cn3c2c1Oc1cc2ccccc2cc1-3` [compound 397], the IC50 is 0.75 µM.

For `CN1CCCC1CCNC(=O)c1cn2c3c(c(NCCN4CCCC4)c(F)cc3c1=O)Oc1c-2ccc2ccccc12` (centres unmarked) [compound 138], the IC50 turned out to be 1.75 µM.

`CN1CCCC1CCNc1c(F)cc2c(=O)c(C(=O)NCCCN3CCOCC3)cn3c2c1Oc1c-3ccc2ccccc12` (centres unmarked) [compound 476]: the IC50 was 0.58 µM.

`CN1CCCC1CCNC(=O)c1cn2c3cc4c(=O)c5ccccc5c(=O)c4cc3oc3c(N4CCC(N)C4)c(F)cc(c1=O)c32` (centres unmarked) [compound 489]: the IC50 is 0.5 µM.

As for `CN1CCCC1CCNC(=O)c1cn2c3c(c(NCCCNC(=O)OC(C)(C)C)c(F)cc3c1=O)Oc1cc3ccccc3cc1-2` (centres unmarked) [compound 297], the IC50 worked out at 1.75 µM.

In the case of `CN1CCCC1CCNC(=O)c1cn2c3c(c(NCCN4CCOCC4)c(F)cc3c1=O)Oc1cc3c(cc1-2)oc1ccccc13` (centres unmarked) [compound 147], the IC50 was 1.75 µM.
